Assay results reported in US9815866B2, “Peptides that bind to epithelial cell adhesion molecule” (JAPANESE FOUNDATION FOR CANCER RESEARCH, priority 2012, dated 2017).
Bridge positions count the residues as written; N and C are the ends. Peptide text beside a SMILES is read from it.

Experiments:
[1] = biological target: T1, EpCAM-expressing cells HT-29 (Homo sapiens, UniProt P16422); assay: Cell staining of HT-29 cells, confocal microscope; type: cell-based; conditions: HT-29, FITC-labeled peptide 0.4 μM, 37° C., 1 hour
T1 construct: EpCAM on HT-29 was stained at a concentration of 0.4 μM; endogenous in cells; host or cells: HT-29
T1 sequence (P16422 24-314): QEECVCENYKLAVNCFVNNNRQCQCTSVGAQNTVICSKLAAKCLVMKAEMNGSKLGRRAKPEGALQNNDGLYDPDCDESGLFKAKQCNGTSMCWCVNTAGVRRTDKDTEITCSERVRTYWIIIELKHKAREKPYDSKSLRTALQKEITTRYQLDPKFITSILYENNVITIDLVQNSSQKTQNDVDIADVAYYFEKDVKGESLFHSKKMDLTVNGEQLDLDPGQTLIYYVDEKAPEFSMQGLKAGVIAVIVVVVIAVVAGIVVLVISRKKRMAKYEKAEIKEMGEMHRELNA
Procedure: (§1) The EpCAM-expressing cells HT-29 or the non-expressing cells Hs578T were cultured in a medium containing 10% fetal calf serum in a Petri dish for 48 hours and then incubated at 37° C. for 1 hour with the FITC-labeled Ep114 peptide or a L3A control labeled peptide at a final concentration of 0.4 μM Immediately thereafter, the cells were observed under a confocal microscope.

HT-29-derived exosomes = biological target: T2, HT-29-derived exosomes (Homo sapiens, UniProt P16422); assay: ELISA with immobilized biotinylated peptide and HT-29-derived exosomes; type: binding; conditions: increasing HT-29-derived exosomes
T2 construct: endogenous in cells; host or cells: exosomes from HT-29 cells
T2 sequence (P16422 24-314): T1 sequence (P16422 24-314)
Procedure: was immobilized onto an ELISA plate via streptavidin, and HT-29-derived exosomes were added thereto and reacted. After washing, bound exosomes were detected using the anti-EpCAM antibody. The biotin-modified peptide PE194 of the L3A variant was immobilized in the same way as above and used as a control.

[2] = S—S bond formation (autoxidation) of peptide by fluorescence depolarization method and HPLC; type: physicochemical
From the text: The S—S bond formation of Ep114 was studied in detail using the fluorescence depolarization method and HPLC.

EpCAM on HT-29 = biological target: T3, EpCAM on HT-29 (Homo sapiens, UniProt P16422); assay: Staining of spheroid-cultured HT-29 cells with FITC-modified peptide; type: cell-based; design: endogenous in cells; host or cells: HT-29; conditions: FITC-labeled peptide, 0.4 μM
T3 sequence (P16422 24-314): T1 sequence (P16422 24-314)
Procedure: The HT-29 cells as EpCAM-expressing cells were cultured by spheroid culture method as follows: 4×10^5 cells are suspended in 3 ml of D-MEM/F-12 medium (Dulbecco's Modified n Eagle Medium:Nutrient Mixture 12, 1:1 mixture) (Gibco/Life Technologies Inc.) supplemented with 20 ng/ml human EGF (Miltenyi Biotec K.K.), 20 ng/ml human EGF-2 (Miltenyi Biotec K.K.), B-27 (Gibco/Life Technologies Inc.), penicillin, and streptomycin and inoculated to EZ-Sphere®, a Petri dish of 3.5 cm in diameter coated with MPC polymer. After static culture for 72 hours, the cells were collected while the medium was suspended by pipetting. The cells were stained with the FITC-modified peptide and observed under a fluorescence microscope. […]

[3] = test system: non-EpCAM-expressing cells Hs578T; assay: Cell staining of Hs578T cells, confocal microscope; type: cell-based; conditions: FITC-labeled peptide 0.4 μM, 37° C., 1 hour
Procedure: as §1

MCF-7 cells = biological target: T4, MCF-7 cells (Homo sapiens, UniProt P16422); assay: Staining of EpCAM in MCF-7 cells; type: cell-based; conditions: data not shown
T4 construct: in MCF-7 cells known to express EpCAM; endogenous in cells; host or cells: MCF-7
T4 sequence (P16422 24-314): T1 sequence (P16422 24-314)
Procedure: The HT-29 cells as EpCAM-expressing cells were cultured by spheroid culture method as follows: 4×10^5 cells are suspended in 3 ml of D-MEM/F-12 medium (Dulbecco's Modified n Eagle Medium:Nutrient Mixture 12, 1:1 mixture) (Gibco/Life Technologies Inc.) supplemented with 20 ng/ml human EGF (Miltenyi Biotec K.K.), 20 ng/ml human EGF-2 (Miltenyi Biotec K.K.), B-27 (Gibco/Life Technologies Inc.), penicillin, and streptomycin and inoculated to EZ-Sphere®, a Petri dish of 3.5 cm in diameter coated with MPC polymer. After static culture for 72 hours, the cells were collected while the medium was suspended by pipetting. The cells were stained with the FITC-modified peptide and observed under a fluorescence microscope. The staining was carried out by adding 4 μM peptide into a McCoy's 5A medium and standing still at room temperature for 30 minutes.
In addition to HT-29 cells, the staining of EpCAM using Ep114 was also confirmed by a similar method in MCF-7 cells known to express EpCAM (data not shown).

EpCAM [4] = biological target: T5, EpCAM (Homo sapiens, UniProt P16422); assay: Dissociation constant of EpCAM-binding peptide and EpCAM by fluorescence depolarization method; conditions: immediately after chemical synthesis, no oxidation
T5 construct: with insertions myc and His tags at the C terminus of the extracellular domain; myc (C); made in house; host or cells: HEK-293T
T5 sequence (P16422 24-265 limits assumed): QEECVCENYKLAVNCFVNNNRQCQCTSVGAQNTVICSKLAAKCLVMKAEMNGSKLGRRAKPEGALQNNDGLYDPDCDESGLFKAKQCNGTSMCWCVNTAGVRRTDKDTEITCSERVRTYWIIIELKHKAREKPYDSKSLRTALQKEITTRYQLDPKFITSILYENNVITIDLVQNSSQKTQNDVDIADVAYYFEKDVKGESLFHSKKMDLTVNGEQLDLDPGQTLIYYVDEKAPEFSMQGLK
Procedure: The obtained EpCAM peptides were assayed for their strength of binding to EpCAM by the fluorescence depolarization method, which is a method for evaluating the interaction between molecules. Each fluorescently labeled EpCAM peptide and EpCAM are used to determine the strength of binding from the kinetics of depolarization by Brownian movement.
Each FITC-modified EpCAM peptide or control peptide was suspended at a concentration of approximately 100 μM in PBS. After centrifugation, the supernatant was collected and diluted 10-fold, and the absorbance was measured at 495 nm From the measurement value, the molar concentration of the peptide was determined using the formula of Beer-Lambert of the following expression 1: A=E×b×C [Expression 1]
EpCAM is diluted with PBS into several concentrations from 0 until reaching equilibrium (40 nM for the Ep133 peptide), and the FITC-modified peptide whose precise concentration has been measured by the aforementioned method is added to the dilutions thus prepared. The sample was left at a temperature for measurement for 30 minutes or longer and subjected to polarization measurement using a spectrofluorometer FP-6500 (JASCO Corp.) equipped with an automatic polarization measurement unit (JASCO Corp., APH-103). Kd was estimated by curve fitting according to the Hill equation.
The dissociation constants of the two types of peptides Ep133 (FIG. 2(A)) and Ep114 (FIG. 2(C)), which were obtained in the present invention and had the high ability to bind to EpCAM, were measured by the fluorescence depolarization method.
The dissociation constants of the EpCAM-binding peptide Ep301 (FIG. 2(D)) disclosed in Patent Literature 2 and Ep301 control (FIG. 2(E)), which was a control peptide derived from Ep301 by the substitution of cysteine at positions 5 and 10 by serine, and a sequence of EpCAM from residue 106 to 119 (FIG. 2(F)) having partial homology to EpCAM-binding peptides were measured similarly.

[5] = biological target: T6, 293T cells transfected with full-length EpCAM gene (Homo sapiens, UniProt P16422); assay: Staining of 293T cells forced to express EpCAM with FITC-modified peptide; type: cell-based; conditions: FITC-modified peptide with or without oxidation treatment
T6 construct: an expression plasmid in which the full-length EpCAM gene incorporated; expressed in transfected cells; host or cells: 293T
T6 sequence (P16422 24-314): T1 sequence (P16422 24-314)
From the text: 293T cells expressing no endogenous EpCAM were transfected with pkk196, an expression plasmid in which the full-length EpCAM gene incorporated, and forced to express EpCAM, followed by staining using FITC-modified Ep114.

EpCAM [6] = biological target: T7, EpCAM (Homo sapiens, UniProt P16422); conditions: peptide separated from the phage; earlier work (Patent Literature 2); cited from earlier work
T7 sequence (P16422 24-314): T1 sequence (P16422 24-314)

EpCAM [7] = biological target: T7, EpCAM; assay: Binding activity against EpCAM after oxidation treatment (S—S bond formation, HPLC fractionation)

Row | SMILES | staining of cell membrane portions [1] | ELISA signal (HT-29-derived exosomes) | S—S bond formation ([2]; in PBS at 4° C. or frozen at −20° C., data not shown) | oxidation ([2]; in the presence of 10% FCS) | staining of EpCAM on HT-29 spheroids (EpCAM on HT-29) | staining [3] | staining of EpCAM (MCF-7 cells) | binding activity against EpCAM (EpCAM [4]) | ability to stain EpCAM [5] | ability of the peptide to bind to EpCAM (EpCAM [6]) | binding activity against EpCAM (EpCAM [7])
1 | CC[C@H](C)[C@@H]1NC(=O)[C@H](CC(N)=O)NC(=O)[C@H](CCCNC(=N)N)NC(=O)[C@H](C(C)C)NC(=O)[C@@H](NC(=O)[C@H](CCC(N)=O)NC(=O)[C@H](CC(C)C)NC(=O)[C@H](Cc2c[nH]cn2)NC(=O)[C@@H](N)CCCCN)CSSC[C@@H](C(=O)N[C@@H](Cc2c[nH]c3ccccc23)C(=O)N[C@@H](CO)C(=O)O)NC1=O [Ep114, KHLQCVRNICWS] (H-KHLQCVRNICWS-OH; disulfide 5-10; N-terminus and C-terminus assumed) | staining of the cell membrane portions of the EpCAM-expressing cells HT-29 was observed | enhancement in ELISA signal was observed | oxidized after 10 days to form an S—S bond | rapidly oxidized | stained | no staining was observed | confirmed | no binding activity against EpCAM | equivalent ability to stain EpCAM | – | –
2 | CC[C@H](C)[C@@H]1NC(=O)[C@@H](NC(=O)[C@H](CCC(N)=O)NC(=O)[C@H](CC(C)C)NC(=O)[C@H](CO)NC(=O)[C@@H](N)CCCCN)CSSC[C@@H](C(=O)N[C@@H](Cc2c[nH]c3ccccc23)C(=O)N2CCC[C@H]2C(=O)O)NC(=O)[C@H](CC(C)C)NC(=O)[C@H](CC(N)=O)NC(=O)[C@H](CC(N)=O)NC1=O [Ep301, KSLQCINNLCWP, reference compound] (H-KSLQCINNLCWP-OH; disulfide 5-10; N-terminus and C-terminus assumed) | – | – | – | – | – | – | – | – | – | weak | gain binding activity against EpCAM
